Patent US9149465B2, “Isoxazolines as inhibitors of fatty acid amide hydrolase” (Infinity Pharmaceuticals, Inc., priority 2009, dated 2015)

The compounds below were run against T1, human FAAH (Homo sapiens, UniProt O00519) (assay: Inhibition of human FAAH (AMC arachidonoyl amide fluorescence assay)). Settings: inhibitor preincubated 30 minutes at room temperature; 20 μM AMC arachidonoyl amide; 4 hours; read-out: Activity (Ki, inhibitors of human FAAH).
T1 construct: host or cells: COS-7 cells, transient transfection; 13,000 g membrane fraction solubilised in 1% Triton X-100
T1 sequence (O00519 1-579): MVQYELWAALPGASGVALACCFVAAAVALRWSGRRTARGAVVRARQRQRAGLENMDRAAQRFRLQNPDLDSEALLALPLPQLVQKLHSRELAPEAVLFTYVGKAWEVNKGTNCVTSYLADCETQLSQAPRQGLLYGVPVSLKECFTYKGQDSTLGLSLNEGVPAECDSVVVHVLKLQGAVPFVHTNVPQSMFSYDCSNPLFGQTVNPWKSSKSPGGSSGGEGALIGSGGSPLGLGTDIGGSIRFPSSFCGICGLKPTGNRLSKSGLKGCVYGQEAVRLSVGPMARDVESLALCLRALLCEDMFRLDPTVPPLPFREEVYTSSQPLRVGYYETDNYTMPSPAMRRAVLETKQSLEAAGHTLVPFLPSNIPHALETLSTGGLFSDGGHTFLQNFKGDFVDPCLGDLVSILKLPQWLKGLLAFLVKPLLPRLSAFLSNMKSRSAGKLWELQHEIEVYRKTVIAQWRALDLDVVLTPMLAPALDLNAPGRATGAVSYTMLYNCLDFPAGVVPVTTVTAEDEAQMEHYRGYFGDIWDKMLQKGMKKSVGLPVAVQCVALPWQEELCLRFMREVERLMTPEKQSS
Format: biochemical
Experimental: Human FAAH Preparation: COS-7 cells were split the day before, 1:5 into 150 mm x […] cell culture dishes (Corning Inc., Cat. No. 430599). Transient transfection took place at 30-40% confluency according to FuGENE 6 Transfection Reagent (Roche, Cat. No. 11814 443 001).
Transfection Procedure: The FuGENE transfection 6 reagent (45 uL) was added to 1410 μL of media (DMEM, serum free without pen/strep) in a 15 mL conical tube and incubated at room temp for 5 minutes, followed by the addition of FAAH plasmid DNA (15 μg) (OriGene Cat. No. TC119221, Genbank Accession No. NM_001441.1, 0.67 ug/uL) and a further incubation of 15 minutes at room temperature. The resulting solution was added into one dish of 30-40% confluent COS-7 cells in a drop-wise manner. The COS-7 cell dish was subsequently incubated for 48 hours. The cells are then harvested.
Harvest procedure: Media was aspirated from the dishes and the cells rinsed with 10 mL PBS. The PBS was removed and 3 mL of PBS added to the dish. The dish was scraped to resuspend the cells, and the subsequent cell suspension collected into a 15 mL conical tube. The cells were pelleted by centrifugation at 1200 rpm for 5 minutes in a bench top centrifuge. PBS was removed and the cell pellet snap frozen in liquid nitrogen and stored at −80° C.
COS-7 cells —FAAH purification: • (1) Fractionation: Frozen cell pellets from transient transfections were thawed on ice and resuspended in 12.5 mM Hepes pH 8.0, 100 mM NaCl, 1 mM EDTA (10 mL/0.2 g cell pellet). The pellets were dounce homogenized and then sonicated to produce cell extract. The cell extract was subsequently centrifuged at 1000 g to remove cellular debris. The pellet was discarded and the supernatant centrifuged at 13,000 g for 20 minutes. The pellet contained membrane bound FAAH. The supernatant was discarded and the pellet resolubilized. • (2) Re-solubilization: The fraction of interest, (13,000 g, membrane fraction) was re-suspended in 2.3 mL re-suspension buffer (20 mM Hepes pH 7.8, 10% v/v Glycerol, 1 mM EDTA, 1% Triton X-100) and the sample incubated on ice for 1 hour and then centrifuged to remove any particulate matter. The supernatant containing solubilized human FAAH was aliquoted and snap frozen in liquid nitrogen and stored at −80° C. until use. • (3) Characterization: Protein Concentration determined by Bradford assay. • SDS gel and Western blot to confirm presence of FAAH • FAAH activity assay • Km determination-96-well assay • Linear dependence—96-well assay • Standard compound Ki determination—384-well assay
Human FAAH assay; Experimental Protocol: A 0.1 mg/mL Human FAAH solution was made up in FAAH reaction buffer, and 24 ul pipeted into a 384 well plate. To this was added 1 μL of a 3 fold serially diluted inhibitor from a DMSO stock solution. The FAAH solution and inhibitor were incubated for 30 minutes at room temperature. The FAAH reaction was initiated by the addition of 25 μL of 40 μM AMC Arachidonoyl Amide in FAAH reaction buffer, yielding a final reaction human FAAH preparation concentration of 0.05 mg/ml and AMC-Arachidonoyl substrate concentration of 20 μM, reaction volume 50 μL. The reaction was allowed to proceed for 4 hours at room temperature. The reaction was stopped by the addition of 25 μL 12 μM a-ketoheterocycle (Cayman Chemicals, catalogue #10435). The microtiter plate was read in the envision plate reader.
The raw fluorescence was plotted on the y axis and the inhibitor concentration on the x axis to give a dose response inhibition curve. The data was fitted to a single site competitive inhibition equation, fixing the Km for the human enzyme to 12 μM and 9 μM respectively.
With `Fc1ccc([C@H]2CC(Br)=NO2)cc1` (racemic) [I-2] the Ki was 100 to 1000 nM.
For `Clc1ccc([C@H]2CC(Br)=NO2)cc1` (racemic) [I-3], the Ki was ≤ 100 nM.
With `COc1ccc([C@H]2CC(Br)=NO2)cc1` (racemic) [I-6] the Ki was ≤ 100 nM.
With `BrC1=NO[C@@H](c2ccc(-c3ccccc3)cc2)C1` (racemic) [I-9] the Ki was ≤ 100 nM.
For `FC(F)(F)Oc1ccc(C2CC(Br)=NO2)cc1` (racemic) [I-14, 3-bromo-5-(4-(trifluoromethoxy)phenyl)-4,5-dihydroisoxazole], the Ki was ≤ 100 nM.
For `CC(C)Oc1ccc([C@H]2CC(Br)=NO2)cc1` (racemic) [I-15], the Ki was ≤ 100 nM.
For `BrC1=NO[C@@H](c2ccc3c(c2)OCO3)C1` (racemic) [I-16], the Ki was ≤ 100 nM.
`CCCCOc1ccc([C@H]2CC(Br)=NO2)cc1` (racemic) [I-20] was tested, and the Ki was ≤ 100 nM.
`O=C(NCc1ccccc1)c1ccc([C@H]2CC(Br)=NO2)cc1` (racemic) [I-22] showed a Ki of 100 to 1000 nM.
For `COc1ccc([C@H]2CC(Oc3cccnc3)=NO2)cc1` (racemic) [I-38], the Ki was 100 to 1000 nM.
In the case of `NC(=O)c1cncc(OC2=NOC(c3ccc(OC(F)(F)F)cc3)C2)c1` (racemic) [I-53], the Ki is reported as 100 to 1000 nM.
In the case of `CNC(=O)c1cncc(OC2=NOC(c3ccc(OC(F)(F)F)cc3)C2)c1` (racemic) [I-54], the Ki is reported as ≤ 100 nM.
With `O=C(O)c1cncc(OC2=NOC(c3ccc(OC(F)(F)F)cc3)C2)c1` (racemic) [I-55] the Ki was ≥ 1000 nM.
`FC(F)(F)c1ccc(OC2=NOC(c3ccc(Oc4ccccc4)cc3)C2)cn1` (racemic) [I-56] was tested, and the Ki was ≤ 100 nM.
`c1ccc(Oc2ccc(C3CC(Oc4cnc5cc[nH]c5c4)=NO3)cc2)cc1` (racemic) [I-57] was tested, and the Ki was ≤ 100 nM.
Compound `N#Cc1cccc(OC2=NOC(c3ccc(Oc4ccccc4)cc3)C2)c1` (racemic) [I-58] has a Ki of 100 to 1000 nM.
For `Fc1ccccc1OC1=NOC(c2ccc(Oc3ccccc3)cc2)C1` (racemic) [I-59], the Ki was 100 to 1000 nM.
With `Fc1ccc(OC2=NOC(c3ccc(Oc4ccccc4)cc3)C2)cc1C(F)(F)F` (racemic) [I-60] the Ki was ≥ 1000 nM.
For `COC(=O)c1cccc(OC2=NOC(c3ccc(Oc4ccccc4)cc3)C2)c1` (racemic) [I-61], the Ki was ≤ 100 nM.
For `COC(=O)c1ccc(OC2=NOC(c3ccc(Oc4ccccc4)cc3)C2)cc1` (racemic) [I-62], the Ki was ≤ 100 nM.
In the case of `N[S@SP3](=O)(=O)c1cccc(OC2=NOC(c3ccc(Oc4ccccc4)cc3)C2)c1` (racemic) [I-63], the Ki is reported as ≥ 1000 nM.
For `N[S@SP3](=O)(=O)c1cccc(OC2=NOC(c3ccc(Oc4ccccc4)cc3)C2)c1` (racemic) [I-64], the Ki was ≥ 1000 nM.
In the case of `COc1cncc(OC2=NOC(c3ccc(Oc4ccccc4)cc3)C2)c1` (racemic) [I-65], the Ki is reported as ≤ 100 nM.
`COc1ncc(OC2=NOC(c3ccc(Oc4ccccc4)cc3)C2)cn1` (racemic) [I-66] was tested, and the Ki was ≤ 100 nM.
In the case of `COC(=O)c1ccc(OC2=NOC(c3ccc(Oc4ccccc4)cc3)C2)cn1` (racemic) [I-67], the Ki is reported as ≤ 100 nM.
With `c1ccc(Oc2ccc(C3CC(Oc4cnc5[nH]ccc5c4)=NO3)cc2)cc1` (racemic) [I-68] the Ki was ≤ 100 nM.
In the case of `c1ccc(Oc2ccc(C3CC(Oc4cnc5ccoc5c4)=NO3)cc2)cc1` (racemic) [I-69], the Ki is reported as ≤ 100 nM.
In the case of `FC(F)(F)Oc1ccc(C2CC(Oc3cccnc3)=NO2)cc1` (racemic) [I-70], the Ki is reported as ≤ 100 nM.
With `FC(F)(F)Oc1ccc(C2CC(Oc3cncc(Br)c3)=NO2)cc1` (racemic) [I-71] the Ki was ≤ 100 nM.
With `FC(F)(F)Oc1ccc(C2CC(Oc3cncc(-c4ccccc4)c3)=NO2)cc1` (racemic) [I-72] the Ki was 100 to 1000 nM.
`NC(=O)c1cccc(-c2cncc(OC3=NOC(c4ccc(OC(F)(F)F)cc4)C3)c2)c1` (racemic) [I-73] was tested, and the Ki was ≤ 100 nM.
In the case of `COC(=O)c1ccc(C2CC(Br)=NO2)cc1` (racemic) [I-74], the Ki is reported as ≤ 100 nM.
With `CC1(c2ccc(OC(F)(F)F)cc2)CC(Br)=NO1` (racemic) [I-75] the Ki was ≤ 100 nM.
`CC1(c2ccc(Oc3ccccc3)cc2)CC(Br)=NO1` (racemic) [I-76] was tested, and the Ki was ≤ 100 nM.
In the case of `COc1ccc([C@@H]2ON=C(Br)[C@H]2C)cc1` (racemic) [I-77], the Ki is reported as ≥ 1000 nM.
`COC(=O)c1cccc(-c2ccc(OC3=NOC(c4ccc(OC(F)(F)F)cc4)C3)cn2)c1` (racemic) [I-83] showed a Ki of 100 to 1000 nM.
`CCOC(=O)c1cccc(-c2ccc(OC3=NOC(c4ccc(OC(F)(F)F)cc4)C3)cn2)c1` (racemic) [I-84] was tested, and the Ki was 100 to 1000 nM.
`O=C(O)c1cccc(-c2ccc(OC3=NOC(c4ccc(OC(F)(F)F)cc4)C3)cn2)c1` (racemic) [I-85] was tested, and the Ki was 100 to 1000 nM.
With `FC(F)(F)Oc1ccc(C2CC(Oc3ccc(-c4ccccc4)nc3)=NO2)cc1` (racemic) [I-86] the Ki was 100 to 1000 nM.
`c1cncc(OC2=NOC(c3ccc(Oc4cccnc4)cc3)C2)c1` (racemic) [I-87] was tested, and the Ki was ≤ 100 nM.
In the case of `CC1(c2ccc(OC(F)(F)F)cc2)CC(Oc2cccnc2)=NO1` (racemic) [I-88], the Ki is reported as 100 to 1000 nM.
`CC1(c2ccc(Oc3ccccc3)cc2)CC(Oc2cccnc2)=NO1` (racemic) [I-89] was tested, and the Ki was ≤ 100 nM.
In the case of `NS(=O)(=O)c1ccc(OC2=NOC(c3ccc(Oc4ccccc4)cc3)C2)cc1` (racemic) [I-90], the Ki is reported as ≤ 100 nM.
In the case of `C[C@@H]1C(Oc2cccnc2)=NO[C@H]1c1ccc(Oc2ccccc2)cc1` (racemic) [I-91], the Ki is reported as ≥ 1000 nM.
In the case of `CC(C)(C)OC(=O)Nc1ccc(OC2=NOC(c3ccc(Oc4ccccc4)cc3)C2)cn1` (racemic) [I-92], the Ki is reported as ≥ 1000 nM.
With `CC(=O)Nc1ccc(OC2=NOC(c3ccc(Oc4ccccc4)cc3)C2)cn1` (racemic) [I-94] the Ki was ≤ 100 nM.
In the case of `CCC1(c2ccc(Oc3ccccc3)cc2)CC(Br)=NO1` (racemic) [I-95], the Ki is reported as ≤ 100 nM.
For `COC(=O)c1ccc(OC2=NOC(c3ccc(OC(F)(F)F)cc3)C2)cn1` (racemic) [I-96], the Ki was ≤ 100 nM.
`O=C(O)c1ccc(OC2=NOC(c3ccc(OC(F)(F)F)cc3)C2)cn1` (racemic) [I-97] was tested, and the Ki was ≤ 100 nM.
`COC(=O)CCc1ccc(OC2=NOC(c3ccc(Oc4ccccc4)cc3)C2)cn1` (racemic) [I-98] was tested, and the Ki was ≤ 100 nM.
In the case of `O=C(O)CCc1ccc(OC2=NOC(c3ccc(Oc4ccccc4)cc3)C2)cn1` (racemic) [I-99], the Ki is reported as ≤ 100 nM.
With `NC(=O)CCc1ccc(OC2=NOC(c3ccc(Oc4ccccc4)cc3)C2)cn1` (racemic) [I-100] the Ki was ≤ 100 nM.
For `c1ccc(-c2ccc([C@H]3CC(Oc4cccnc4)=NO3)cc2)cc1` (racemic) [I-101], the Ki was ≤ 100 nM.
For `C[C@]1(c2ccc(-c3ccccc3)cc2)CC(Br)=NO1` (racemic) [I-102], the Ki was ≤ 100 nM.
With `c1ccc(-c2ccc([C@H]3CC(Oc4cncnc4)=NO3)cc2)cc1` (racemic) [I-103] the Ki was ≤ 100 nM.
For `C[C@]1(c2ccc(-c3ccccc3)cc2)CC(Oc2cncnc2)=NO1` (racemic) [I-104], the Ki was ≤ 100 nM.
In the case of `COC(=O)CNC(=O)c1ccc(OC2=NOC(c3ccc(OC(F)(F)F)cc3)C2)cn1` (racemic) [I-105], the Ki is reported as ≤ 100 nM.
